In patent US9410152B2, “Use of microrna molecules to influence skin pigmentation” (CHANEL PARFUMS BEAUTE, priority 2011, dated 2016):

System: MNT-1 cells
Assay: Measurement of the relative melanin concentration (absorbance at 470 nm of protein lysates)
Type: cell-based, human
Conditions: Homo sapiens, 288 h, 3.5 mM, 12 days, read-out: percentage inhibition (depigmentation positive control)
Description: 4×10^5 MNT-1 cells were seeded per well in a 6-well plate (#353046, Falcon) on day-1. On day 0, the cells were transfected with 50 nM of mimetic of the miRNAs (hsa-mir-137 # C-300604-07-005, hsa-mir-7 # C-300547-05-0005, hsa-mir-330-5p # C-301082-01-0005, negative control # NC-002000-01-05, Dharmacon), using 5 μL of Lipofectamine 2000 (#1668-019, Invitrogen). On day 1, the medium was changed. On day 3, the cells were trypsinized and seeded at 4×10^5 cells per well. On day 4, the cells were transfected again with 50 nM of mimetic of the miRNAs (see day 0). On day 5, the medium was changed. On day 7, the cells were trypsinized and seeded at 4×10^5 cells per well. On day 8, the cells were transfected with 50 nM of mimetic of the miRNAs (see day 0). On day 9, the medium was changed. On day 10, the cells were trypsinized and divided into two (from one by six wells to two by six wells). On day 12, one six-well plate was used for lysis of the RNA and the other for lysis of the proteins. As positive control of depigmentation, MNT-1 cells were incubated with 3.5 mM of kojic acid (Sigma K3125-5G) for 12 days. The cells were distributed as described and the kojic acid was renewed with the medium every 4 days. The percentage inhibition of the kojic acid is of the order of 10%.
On day 12, the cells were washed in PBS twice and lysed in 75 μL/well of a 6-well dish of lysis buffer for the RIPA proteins. The protein lysates were transferred to 1.5-ml Eppendorf tubes and vortexed lightly to homogenize the solution before putting the tube on ice or for storage at −80° C. 2 μL of protein lysate was used for measuring the absorbance of the melanin at 470 nm using the NanoVue spectrophotometer (GE Healthcare). The protein lysate of the unpigmented XB2 keratinocytes was used as calibrator sample (reference=0). To detect the relative quantity of melanin, all the samples were compared with the transfection control sample (miCtrl). The absorbance at 470 nm of the sample miCtrl was fixed at 1 as reference. In addition, the melanin absorption at 470 nm was normalized taking into account the concentration of proteins of each sample relative to miCtrl.

O=c1cc(CO)occ1O [kojic acid, reference compound]
inhibition at 3500 µM: ~10%
